Laboratory results: ChEMBL document CHEMBL1201862, “PubChem BioAssay data set” (2004)
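All cell lines were grown in 96-well plates and treated with compound for 48 hours. GI50 = concentration required for 50% inhibition of growth.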 The source made the active and inactive calls. Cut-off read from the data, not from the text of the source: active = GI50 up to about 1.1 µM and inactive = higher.

Legend:
Test in all cases: NCI tumour cell line growth inhibition, 48 h
[1] = system: SNB-19
[2] = system: CAKI-1
[3] = system: NCI-H522
[4] = system: RPMI-8226
[5] = system: SK-OV-3
[6] = system: HL-60
[7] = system: OVCAR-3
[8] = system: SF-268
[9] = system: OVCAR-4
[10] = system: 786-0
[11] = system: HCC 2998
[12] = system: LOX IMVI
[13] = system: T47D
[14] = system: MDA-MB-435
[15] = system: HOP-92
[16] = system: SW-620
[17] = system: SK-MEL-5
[18] = system: UACC-257
[19] = system: MCF7
[20] = system: NCI-H460

Measured: GI50

CC1(C)N=c2c(ncn2CCCO)=C(C(N)=O)N1
inactive: [1] > 100 µM | [2] > 100 µM | [3] > 100 µM | [4] > 100 µM | [5] > 100 µM | [6] > 100 µM | [7] > 100 µM | [8] > 100 µM | [9] > 100 µM | [10] > 100 µM | [11] > 100 µM | [12] > 100 µM | [13] > 100 µM | [14] > 100 µM | [15] > 100 µM | [16] > 100 µM | [17] > 100 µM | [18] > 100 µM | [19] > 100 µM | [20] > 100 µM
